Consider six molecules from ChEMBL document CHEMBL1157995, “New acetylenic enol ethers of glycerol from the sponge Petrosia sp” (1999).

Molecules are shown by their SMILES. Values after ≈ are worked out from the molar mass of the structure shown.

The assay deals with K562. Put plainly: Cytotoxicity against human K-562 cells after 5 days by MTT assay. Type of assay: functional. The note with it: K562, 120 h, read-out: LC50 (the source's name).
For `CCC(C)CCCCCC#C/C=C\OC[C@@H](O)CO` (stereo partly specified) [PETRORASPAILYNE B2], the CC50 is more than 100 µg/mL. Then `CCCCCCCCC#C/C=C\OC[C@@H](O)CO` [PETRORASPAILYNE B1], with more than 100 µg/mL; and `CCCCCC/C=C\C#C/C=C\OC[C@@H](O)CO` [PETRORASPAILYNE A1], with 9.2 µg/mL (≈ 36.5 µM); and `CCC(C)CCCCC/C=C\C#C/C=C\OC[C@@H](O)CO` (stereo partly specified) [PETRORASPAILYNE A3], with 29 µg/mL (≈ 98.5 µM). With `CC(C)CCCC/C=C\C#C/C=C\OC[C@@H](O)CO` [PETRORASPAILYNE A2], the CC50 turned out to be 57 µg/mL (≈ 214 µM). With `CC(C)CCCCCCC#C/C=C\OC[C@@H](O)CO` [PETRORASPAILYNE B3] the figure was more than 100 µg/mL.
